This is an account of results in patent publication US11661426B2, “Imidazole-containing inhibitors of ALK2 kinase” (BioCryst Pharmaceuticals, Inc., priority 2017, dated 2023).

In the assay the target is ALK2 (Homo sapiens (Human), UniProt Q04771). Description: ALK2 inhibition, LanthaScreen Eu Kinase Binding Assay (ThermoFisher Scientific / Life Technologies). The settings on record: read-out: Measured Ki (IC50) Value for Compounds: IC50. As for the experimental part: Biochemical assays to measure the inhibitory effects of the compounds were performed by ThermoFisher Scientific (Life Technologies). ALK2 inhibition was tested using LanthaScreen™ Eu Kinase Binding Assay screening protocol.
ALK2, sequence (Q04771 21-509): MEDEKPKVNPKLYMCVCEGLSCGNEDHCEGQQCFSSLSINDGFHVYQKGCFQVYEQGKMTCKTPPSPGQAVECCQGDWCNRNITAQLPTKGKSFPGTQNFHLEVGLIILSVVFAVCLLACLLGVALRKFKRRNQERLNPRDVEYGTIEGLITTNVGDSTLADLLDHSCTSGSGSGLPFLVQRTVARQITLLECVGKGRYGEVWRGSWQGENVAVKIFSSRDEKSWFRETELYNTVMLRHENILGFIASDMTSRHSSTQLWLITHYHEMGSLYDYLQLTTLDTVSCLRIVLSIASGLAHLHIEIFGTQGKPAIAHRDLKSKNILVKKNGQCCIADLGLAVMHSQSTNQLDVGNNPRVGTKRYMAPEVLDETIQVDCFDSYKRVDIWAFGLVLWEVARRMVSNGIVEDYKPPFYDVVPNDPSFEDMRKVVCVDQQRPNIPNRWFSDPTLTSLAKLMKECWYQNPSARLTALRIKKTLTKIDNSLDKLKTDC
(TR-FRET usually uses a lanthanide donor and a delayed reading to cut background.)

pIC50: −log10 of the molar value.

Consider `COc1cc(-n2cnc(Nc3nc(N4CCC[C@H]4CO)nc4cc(N5CCC[C@H]5CO)ccc34)c2)cc(OC)c1OC` [Compound 269b, ((2S,2′S)-1,1′-(4-((1-(3,4,5-trimethoxyphenyl)-1H-imidazol-4-yl)amino)quinazoline-2,7-diyl)bis(pyrrolidine-2,1-diyl))dimethanol], for which the pIC50 was above 7.00.
Consider `CCOc1ccc(-n2cnc(Nc3nc(N4CCC[C@H]4CO)c4cccn4n3)c2)cc1OCC` [Compound 256d, (S)-(1-(2-((1-(3,4-diethoxyphenyl)-1H-imidazol-4-yl)amino)pyrrolo[2,1-f][1,2,4]triazin-4-yl)pyrrolidin-2-yl)methanol], for which the pIC50 was below 6.00.
Take `COc1cc(-n2cnc(Nc3nc(N4CCC[C@H]4CO)c4ccncc4n3)c2)cc(OC)c1OC` [Compound 381b, (S)-(1-(2-((1-(3,4,5-trimethoxyphenyl)-1H-imidazol-4-yl)amino)pyrido[3,4-d]pyrimidin-4-yl)pyrrolidin-2-yl)methanol]: the pIC50 was above 7.00.
As to `COc1cc(-n2cnc(Nc3nc(N4CC[C@H](O)C4)nc4ccoc34)c2)cc(OC)c1OC` [Compound 237a, (S)-1-(4-((1-(3,4,5-trimethoxyphenyl)-1H-imidazol-4-yl)amino)furo[3,2-d]pyrimidin-2-yl)pyrrolidin-3-ol], the pIC50 was above 7.00.
The value for `COc1cc(-n2cnc(Nc3nc4c(c(N5CCCC5)n3)CN(Cc3ccccc3)CC4)c2)cc(OC)c1OC` [Compound 224b, 6-benzyl-4-(pyrrolidin-1-yl)-N-(1-(3,4,5-trimethoxyphenyl)-1H-imidazol-4-yl)-5,6,7,8-tetrahydropyrido[4,3-d]pyrimidin-2-amine] was above 7.00; that for `COc1cc(-n2cnc(Nc3nc(N4CCC[C@H]4CO)nc4cnccc34)c2)cc(OC)c1OC` [Compound 378c, (S)-(1-(4-((1-(3,4,5-trimethoxyphenyl)-1H-imidazol-4-yl)amino)pyrido[3,4-d]pyrimidin-2-yl)pyrrolidin-2-yl)methanol] was above 7.00; that for `COc1cc(-n2cnc(Nc3nc(N4CCC[C@H]4C(N)=O)nc4[nH]ccc34)c2)cc(OC)c1OC` [Compound 142b, (S)-1-(4-((1-(3,4,5-trimethoxyphenyl)-1H-imidazol-4-yl)amino)-7H-pyrrolo[2,3-d]pyrimidin-2-yl)pyrrolidine-2-carboxamide] was above 7.00.
As for `COc1cc(F)c(CC(=O)N2CCN(c3nc(Nc4cn(C)cn4)c4cccn4n3)CC2)c(F)c1` [Compound 51a, 2-(2,6-difluoro-4-methoxyphenyl)-1-(4-(4-((1-methyl-1H-imidazol-4-yl)amino)pyrrolo[2,1-f][1,2,4]triazin-2-yl)piperazin-1-yl)ethanone], the pIC50 was 6.00 to 7.00.
For `OC[C@@H]1CCCN1c1nc(Nc2cn(-c3cn(C4CCCCC4)cn3)cn2)c2cccn2n1` [Compound 452d, (S)-(1-(4-((1′-cyclohexyl-1′H-[1,4′-biimidazol]-4-yl)amino)pyrrolo[2,1-f][1,2,4]triazin-2-yl)pyrrolidin-2-yl)methanol], the pIC50 was 6.00 to 7.00.
On to `COc1cc(-c2cnc(Nc3nc(N4CCC[C@H]4CO)c4cccn4n3)s2)cc(OC)c1OC` [Compound 476a, (S)-(1-(2-((5-(3,4,5-trimethoxyphenyl)thiazol-2-yl)amino)pyrrolo[2,1-f][1,2,4]triazin-4-yl)pyrrolidin-2-yl)methanol], for which the pIC50 is above 7.00.
In the case of `COc1cc(-n2cnc(Nc3nc(N4CC[C@@H](O)C4)c4cccn4n3)c2)cc(OC)c1OC` [Compound 209b, (R)-1-(2-((1-(3,4,5-trimethoxyphenyl)-1H-imidazol-4-yl)amino)pyrrolo[2,1-f][1,2,4]triazin-4-yl)pyrrolidin-3-ol], the pIC50 was above 7.00.
For `COc1cc(-n2cnc(Nc3nc(N4CCC[C@H]4CO)c4c(C)nn(C5CCOC5)c4n3)c2)cc(OC)c1OC` (stereo partly drawn) [Compound 446c, ((2S)-1-(3-methyl-1-(tetrahydrofuran-3-yl)-6-((1-(3,4,5-trimethoxyphenyl)-1H-imidazol-4-yl)amino)-1H-pyrazolo[3,4-d]pyrimidin-4-yl)pyrrolidin-2-yl)methanol], the pIC50 is above 7.00.
`Cc1cc2nc(N3CCC[C@H]3CO)nc(Nc3cn(-c4ccccc4)cn3)c2s1` [Compound 23c, (S)-(1-(6-methyl-4-((1-phenyl-1H-imidazol-4-yl)amino)thieno[3,2-d]pyrimidin-2-yl)pyrrolidin-2-yl)methanol]: the pIC50 was above 7.00.
With `COc1cc(-n2cnc(Nc3nc(N4CCC[C@H]4CO)c4ccccc4n3)c2)cc(OC)c1OC` [Compound 115b, (S)-(1-(2-((1-(3,4,5-trimethoxyphenyl)-1H-imidazol-4-yl)amino)quinazolin-4-yl)pyrrolidin-2-yl)methanol], the pIC50 is above 7.00.
Regarding `OC[C@@H]1CCCN1c1nc(Nc2cn(-c3cc[nH]n3)cn2)c2cccn2n1` [Compound 71c, (S)-(1-(4-((1-(1H-pyrazol-3-yl)-1H-imidazol-4-yl)amino)pyrrolo[2,1-f][1,2,4]triazin-2-yl)pyrrolidin-2-yl)methanol], the pIC50 is above 7.00.
To `COc1cccc(-n2cnc(Nc3nc(N4CCC[C@H]4CO)nn4cccc34)c2)c1` [Compound 56c, (S)-(1-(4-((1-(3-methoxyphenyl)-1H-imidazol-4-yl)amino)pyrrolo[2,1-f][1,2,4]triazin-2-yl)pyrrolidin-2-yl)methanol] belongs above 7.00; to `c1ccc(-n2cnc(Nc3nc(N4CCCC4c4ccccn4)nn4cccc34)c2)cc1` (stereo not drawn) [Compound 9a, N-(1-phenyl-1H-imidazol-4-yl)-2-(2-(pyridin-2-yl)pyrrolidin-1-yl)pyrrolo[2,1-f][1,2,4]triazin-4-amine], 6.00 to 7.00.
To `COc1cc(-n2cnc(Nc3nc(N4CCC[C@H]4CO)nc4c(OC(C)C)cccc34)c2)cc(OC)c1OC` [Compound 144a, (S)-(1-(8-isopropoxy-4-((1-(3,4,5-trimethoxyphenyl)-1H-imidazol-4-yl)amino)quinazolin-2-yl)pyrrolidin-2-yl)methanol] belongs above 7.00; to `COc1cc(-n2cnc(Nc3nc(N4CCC[C@H]4CO)nn4c(Br)ccc34)c2)cc(OC)c1OC` [Compound 85b, (S)-(1-(7-bromo-4-(1-(3,4,5-trimethoxyphenyl)-1H-imidazol-4-ylamino)pyrrolo[1,2-f][1,2,4]triazin-2-yl)pyrrolidin-2-yl)methanol], above 7.00.
For the compound `COc1cc(-n2cnc(Nc3nc(N4CCC[C@H]4C(N)=O)c4ccn(S(=O)(=O)c5ccc(C)cc5)c4n3)c2)cc(OC)c1OC` [Compound 173b, (S)-1-(7-tosyl-2-((1-(3,4,5-trimethoxyphenyl)-1H-imidazol-4-yl)amino)-7H-pyrrolo[2,3-d]pyrimidin-4-yl)pyrrolidine-2-carboxamide], the pIC50 is below 6.00.
Turning to `COc1cc(-n2cnc(Nc3nc(N4CCC[C@H]4C(N)=O)nn4c(CN5CCC[C@H]5C(N)=O)ccc34)c2)cc(OC)c1OC` [Compound 118b, (S)-1-((2-((S)-2-carbamoylpyrrolidin-1-yl)-4-((1-(3,4,5-trimethoxyphenyl)-1H-imidazol-4-yl)amino)pyrrolo[2,1-f][1,2,4]triazin-7-yl)methyl)pyrrolidine-2-carboxamide], the pIC50 is above 7.00.
As to `COc1cc(-n2cnc(Nc3nc(N4CCC[C@H]4CO)c4cccn4n3)n2)cc(OC)c1OC` [Compound 415d, (S)-(1-(2-((1-(3,4,5-trimethoxyphenyl)-1H-1,2,4-triazol-3-yl)amino)pyrrolo[2,1-f][1,2,4]triazin-4-yl)pyrrolidin-2-yl)methanol], the pIC50 was 6.00 to 7.00.
For `COc1cc(-n2cnc(Nc3nc4c(c(N5CCCC5)n3)CCN(Cc3ccccc3)C4)c2)cc(OC)c1OC` [Compound 225b, 7-benzyl-4-(pyrrolidin-1-yl)-N-(1-(3,4,5-trimethoxyphenyl)-1H-imidazol-4-yl)-5,6,7,8-tetrahydropyrido[3,4-d]pyrimidin-2-amine], the pIC50 is above 7.00.
Take `COc1cc(-n2cnc(Nc3nc(N4CCC[C@H]4C(N)=O)nc4cnccc34)c2)cc(OC)c1OC` [Compound 379a, (S)-1-(4-((1-(3,4,5-trimethoxyphenyl)-1H-imidazol-4-yl)amino)pyrido[3,4-d]pyrimidin-2-yl)pyrrolidine-2-carboxamide]: the pIC50 was above 7.00.
To `COc1cc(-n2cnc(Nc3nc(N4CCC[C@H]4CO)nc4c3ccn4CC3CCCCC3)c2)cc(OC)c1OC` [Compound 462c, (S)-(1-(7-(cyclohexylmethyl)-4-((1-(3,4,5-trimethoxyphenyl)-1H-imidazol-4-yl)amino)-7H-pyrrolo[2,3-d]pyrimidin-2-yl)pyrrolidin-2-yl)methanol] belongs above 7.00; to `COc1cc(-n2cnc(Nc3nc(N4CC(F)(F)C[C@H]4CO)c4cccn4n3)c2)cc(OC)c1OC` [Compound 223b, (S)-(4,4-difluoro-1-(2-((1-(3,4,5-trimethoxyphenyl)-1H-imidazol-4-yl)amino)pyrrolo[2,1-f][1,2,4]triazin-4-yl)pyrrolidin-2-yl)methanol], above 7.00; to `COc1cc(-n2cnc(Nc3nc(N4CC[C@H](N(C)C)C4)nc4ccoc34)c2)cc(OC)c1OC` [Compound 261a, (S)-2-(3-(dimethylamino)pyrrolidin-1-yl)-N-(1-(3,4,5-trimethoxyphenyl)-1H-imidazol-4-yl)furo[3,2-d]pyrimidin-4-amine], above 7.00.
To `COc1cc(-n2cnc(Nc3nc(N4CCC[C@H]4CO)c4cc[nH]c4n3)c2)cc(OC)c1OC` [Compound 159c, (S)-(1-(2-((1-(3,4,5-trimethoxyphenyl)-1H-imidazol-4-yl)amino)-7H-pyrrolo[2,3-d]pyrimidin-4-yl)pyrrolidin-2-yl)methanol] belongs above 7.00; to `COc1cc(-n2cnc(Nc3nc(N4CCC[C@H]4CO)nc4cc(N5CCNCC5)ccc34)c2)cc(OC)c1OC` [Compound 376b, (S)-(1-(7-(piperazin-1-yl)-4-((1-(3,4,5-trimethoxyphenyl)-1H-imidazol-4-yl)amino)quinazolin-2-yl)pyrrolidin-2-yl)methanol], above 7.00.
On to `COc1cc(-n2cnc(Nc3ncc4c(n3)CN(Cc3ccccc3)CC4)c2)cc(OC)c1OC` [Compound 202b, 7-benzyl-N-(1-(3,4,5-trimethoxyphenyl)-1H-imidazol-4-yl)-5,6,7,8-tetrahydropyrido[3,4-d]pyrimidin-2-amine], for which the pIC50 was above 7.00.

The pIC50 is −log10 of the IC50, conventionally taken in molar units.
